Assay results taken from the supplement of paper PMC10627819.

Tests used:
[1] = tested on: B. subtilis 168; test: fitness (endpoint OD595 vs no drug) (fraction); higher = more growth
Outline: (§1)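 Growth medium was TSB, LB Lennox or CY, and plates were kept at 37 °C. Inoculation was at OD595 0.01 in 384-well plates, at 30 µl per well or 55 µl for S. pneumoniae. OD595 was monitored every 30 min for 14 h and background-subtracted using the first reading. Fitness is the optical density on entering stationary phase divided by the robust mean of no-drug controls, with values capped at 1.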

[2] = tested on: S. pneumoniae D39V; test: as above
Outline: as §1

[3] = tested on: B. subtilis 168; test: Bliss interaction score (quartile over a dose matrix) (fitness difference); higher = more antagonism (negative = synergy)
Outline: (§2)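 Fitness was OD595 at entry into stationary phase divided by the plate's robust no-drug mean and capped at 1; single-drug fitness was inferred from combination data. The Bliss score is observed minus expected (product) fitness, summarised by quartiles over technical, biological and donor/recipient replicates.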

[4] = tested on: S. aureus DSM 20231; test: as above
Outline: as §2

[5] = tested on: S. aureus Newman; test: as above
Outline: as §2

[6] = tested on: S. pneumoniae D39V; test: as above
Outline: as §2
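Wherever Bliss interaction score (quartile over a dose matrix) is given: first quartile when negative (synergy) and third quartile when positive (antagonism).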

C[C@H]1c2cccc(O)c2C(=O)C2=C(O)[C@]3(O)C(=O)C(C(N)=O)=C(O)[C@@H](N(C)C)[C@@H]3[C@@H](O)[C@@H]21 [Doxycycline] + O=C(O[C@@H]1Cc2c(O)cc(O)cc2O[C@@H]1c1cc(O)c(O)c(O)c1)c1cc(O)c(O)c(O)c1 [EGCG]
Settings	fitness
[1], first compound 0.02 µg/mL, partner 6.25 µg/mL	0.901
[1], first compound 0.04 µg/mL, partner 6.25 µg/mL	0.767
[1], first compound 0.08 µg/mL, partner 6.25 µg/mL	0.53
[1], first compound 0.08 µg/mL, partner 12.5 µg/mL	0.315
[1], first compound 0.08 µg/mL, partner 25 µg/mL	0.0902
[2], first compound 0.0155 µg/mL, partner 12.5 µg/mL	0.85
[2], first compound 0.0155 µg/mL, partner 25 µg/mL	0.864
[2], first compound 0.0155 µg/mL, partner 50 µg/mL	0.881
[2], first compound 0.031 µg/mL, partner 25 µg/mL	0.755

fitness, [2], one replicate
Settings	partner 12.5 µg/mL	partner 25 µg/mL	partner 50 µg/mL
first compound 0.003875 µg/mL	0.954	0.985	0.995
first compound 0.00775 µg/mL	0.919	0.966	0.964

Settings	Bliss interaction score
[3]	0.147
[4]	0.0387
[5]	0.088
[6]	-0.0707

C[C@@H]1O[C@@H]1P(=O)(O)O [Fosfomycin] + CCC(C)C1C(=O)NC(=C)C(=O)NC(C(=O)NC(CSCC(C(=O)N1)NC(=O)/C(=C/C)/NC(=O)C(C(C)CC)N)C(=O)NC2C(SCC(NC(=O)CNC(=O)C3CCCN3C2=O)C(=O)NC(CCCCN)C(=O)NC4C(SCC(NC(=O)CNC(=O)C(NC(=O)C(NC(=O)C(NC(=O)CNC4=O)C)CC(C)C)CCSC)C(=O)NC(CC(=O)N)C(=O)NC(CCSC)C(=O)NC(CCCCN)C(=O)NC5C(SCC6C(=O)NC(C(=O)NC(CSC(C(C(=O)N6)NC(=O)C(NC5=O)C)C)C(=O)NC(CO)C(=O)NC(C(C)CC)C(=O)NC(CC7=CN=CN7)C(=O)NC(C(C)C)C(=O)NC(=C)C(=O)NC(CCCCN)C(=O)O)CC8=CN=CN8)C)C)C)CC(C)C [Nisin]
fitness, main component drawn
Settings	partner 0.4275 µg/mL	partner 0.5 µg/mL	partner 0.855 µg/mL	partner 1 µg/mL	partner 1.6 µg/mL	partner 1.71 µg/mL	partner 2 µg/mL	partner 3.2 µg/mL	partner 6.4 µg/mL
[1], first compound 1.562 µg/mL	–	0.712	–	0.609	–	–	0.45	–	–
[1], first compound 3.124 µg/mL	–	0.59	–	0.542	–	–	0.368	–	–
[1], first compound 6.248 µg/mL	–	0.463	–	0.397	–	–	0.285	–	–
[2], first compound 1.25 µg/mL	≥ 1	–	≥ 1	–	0.0178	0.0788	–	0.0247	0.0308
[2], first compound 2.5 µg/mL	0.942	–	0.998	–	0.0062	0.0945	–	0.0256	0.0213
[2], first compound 5 µg/mL	0.852	–	0.889	–	0.0119	0.111	–	0.0102	0.0062

fitness, [1], one replicate, main component drawn
Settings	partner 1.25 µg/mL	partner 1.6 µg/mL	partner 2.5 µg/mL	partner 3.2 µg/mL	partner 4 µg/mL	partner 5 µg/mL	partner 6.4 µg/mL	partner 8 µg/mL	partner 16 µg/mL
first compound 1.562 µg/mL	0.687	0.577	0.527	0.0483	0.0272	0.0426	0.0336	0.0224	0.0164
first compound 3.124 µg/mL	0.613	0.469	0.303	0.024	0.0425	0.0431	0.0247	0.0352	0.0164
first compound 6.248 µg/mL	0.513	0.298	0.127	0.0136	0.0038	0.0232	0.0329	0.007	0.0049

main component drawn
Settings	Bliss interaction score
[3]	-0.0482
[4]	0.0654
[5]	-0.0541
[6]	-0.0374

C[C@@H]1O[C@@H]1P(=O)(O)O [Fosfomycin] + CN(C)C(=O)C(CCN1CCC(O)(c2ccc(Cl)cc2)CC1)(c1ccccc1)c1ccccc1 [Loperamide]
fitness
Settings	first compound 1.25 µg/mL	first compound 1.562 µg/mL	first compound 2.5 µg/mL	first compound 3.124 µg/mL	first compound 5 µg/mL	first compound 6.248 µg/mL
[1], partner 25 µg/mL	–	0.743	–	0.625	–	0.534
[1], partner 100 µg/mL	–	0.0187	–	0.0366	–	0.011
[2], partner 17.14 µg/mL	0.957	–	0.952	–	0.722	–
[2], partner 20 µg/mL	≥ 1	–	0.985	–	0.81	–
[2], partner 34.28 µg/mL	0.954	–	0.961	–	0.74	–
[2], partner 40 µg/mL	≥ 1	–	≥ 1	–	0.77	–

[2], partner 68.57 µg/mL, one replicate
Settings	fitness
first compound 1.25 µg/mL	0.969
first compound 2.5 µg/mL	0.515
first compound 5 µg/mL	0.861

Settings	Bliss interaction score
[3]	0.305
[4]	0.116
[5]	-0.0773
[6]	0.0632

C[C@@H]1O[C@@H]1P(=O)(O)O [Fosfomycin] + C[C@H]1COc2c(N3CCN(C)CC3)c(F)cc3c(=O)c(C(=O)O)cn1c23 [Levofloxacin]
fitness, [1], one replicate
Settings	first compound 1.562 µg/mL	first compound 3.124 µg/mL	first compound 6.248 µg/mL
partner 0.001 µg/mL	0.864	0.738	0.599
partner 0.0078 µg/mL	0.75	0.643	0.492

Settings	fitness
[1], first compound 1.562 µg/mL, partner 0.002 µg/mL	0.717
[1], first compound 1.562 µg/mL, partner 0.0039 µg/mL	0.724
[1], first compound 1.562 µg/mL, partner 0.0312 µg/mL	0.0432
[1], first compound 1.562 µg/mL, partner 0.0625 µg/mL	0.0523
[1], first compound 1.562 µg/mL, partner 0.125 µg/mL	0.0479
[1], first compound 3.124 µg/mL, partner 0.002 µg/mL	0.629
[1], first compound 3.124 µg/mL, partner 0.0039 µg/mL	0.617
[1], first compound 3.124 µg/mL, partner 0.0312 µg/mL	0.0352
[1], first compound 3.124 µg/mL, partner 0.0625 µg/mL	0.0394
[1], first compound 3.124 µg/mL, partner 0.125 µg/mL	0.0439
[1], first compound 6.248 µg/mL, partner 0.002 µg/mL	0.525
[1], first compound 6.248 µg/mL, partner 0.0039 µg/mL	0.516
[1], first compound 6.248 µg/mL, partner 0.0312 µg/mL	0.0328
[1], first compound 6.248 µg/mL, partner 0.0625 µg/mL	0.0306
[1], first compound 6.248 µg/mL, partner 0.125 µg/mL	0.023
[2], first compound 1.25 µg/mL, partner 0.1725 µg/mL	0.953
[2], first compound 1.25 µg/mL, partner 0.2 µg/mL	0.936
[2], first compound 1.25 µg/mL, partner 0.345 µg/mL	0.86
[2], first compound 1.25 µg/mL, partner 0.4 µg/mL	0.857
[2], first compound 1.25 µg/mL, partner 0.69 µg/mL	0.633
[2], first compound 2.5 µg/mL, partner 0.1725 µg/mL	0.88
[2], first compound 2.5 µg/mL, partner 0.2 µg/mL	0.892
[2], first compound 2.5 µg/mL, partner 0.345 µg/mL	0.735
[2], first compound 2.5 µg/mL, partner 0.4 µg/mL	0.823
[2], first compound 2.5 µg/mL, partner 0.69 µg/mL	0.574
[2], first compound 5 µg/mL, partner 0.1725 µg/mL	0.821
[2], first compound 5 µg/mL, partner 0.2 µg/mL	0.794
[2], first compound 5 µg/mL, partner 0.345 µg/mL	0.728
[2], first compound 5 µg/mL, partner 0.4 µg/mL	0.697
[2], first compound 5 µg/mL, partner 0.69 µg/mL	0.536
[2], first compound 5 µg/mL, partner 0.8 µg/mL	0.341

Settings	Bliss interaction score
[3]	-0.0453
[4]	0.0688
[5]	0.0484
[6]	0.0613
